Reference: patent US20230338554A1, “GALACTOSYLATED DENDRIMERS FOR TARGETED INTRACELLULAR DELIVERY TO HEPATOCYTES” (The Johns Hopkins University, priority 2020, published 2023)

What was measured:
ASGPR = target: T1, ASGPR (Homo sapiens, UniProt P07306); details: cited from earlier work
T1 sequence (P07306 1-291): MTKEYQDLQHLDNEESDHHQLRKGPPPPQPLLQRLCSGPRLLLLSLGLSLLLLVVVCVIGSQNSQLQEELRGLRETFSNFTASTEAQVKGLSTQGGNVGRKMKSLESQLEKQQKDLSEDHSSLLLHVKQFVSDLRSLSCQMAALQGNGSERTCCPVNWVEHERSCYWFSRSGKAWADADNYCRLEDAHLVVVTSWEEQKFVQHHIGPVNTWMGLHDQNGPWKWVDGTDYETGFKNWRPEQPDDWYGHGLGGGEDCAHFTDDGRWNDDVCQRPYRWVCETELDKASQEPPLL

[1] = tested on: severe acetaminophen poisoning; test: Gal-D4-NAC treatment in mouse model of severe acetaminophen poisoning; assay type: in vivo, C57BL6 mice
Method: A model of severe acetaminophen poisoning was established through the administration of 700 mg/kg APAP i.p. to C57BL6 mice (FIG. 12A). There was a high mortality rate, with >90% of mice given APAP overdose dying with 72 hours regardless of treatment with free NAC (FIG. 12B). FIG. 12B represents the survival of healthy sham (black) and saline (red), free NAC (green), and Gal-D4-NAC (blue) treated animals as determined by mass reduction below 80% of the initial animal mass. This model replicates the effects of APAP overdose that result in fulminant liver failure and are considered untreatable with the current clinical NAC regiment. Additionally, to mimic delayed treatment due to late arrival at the hospital, animals eight hours after APAP overdose were also treated as opposed to the pre- and co-treatments with nanoparticles that are typically reported in this model. Both dendrimer and free drug treated animals received 100 mg/kg of NAC, which is […] of the dose that would be administered over 24 hours by i.v. infusion in the clinic.
Next liver necrosis and function were assessed through analysis of images from liver sections isolated at time of death and stained for hematoxylin and eosin. […] After receiving an overdose of APAP, liver structure is essentially destroyed. […]

CC(=O)N[C@H]1C(O)O[C@H](CO)[C@H](O)[C@@H]1O (stereo partly drawn) [N-acetylgalactosamine (GalNAc), N-acetylgalactosamine]
monovalent binding affinity to ASGPR (ASGPR): micromolar scale

CC(=O)N[C@@H](CS)C(=O)O [free NAC, N-acetyl cysteine]
mice dying ([1]; 700 mg/kg APAP i.p., 72 hours): > 90% | liver architecture / liver health ([1]; single i.v. dose 100 mg/kg on a NAC basis): unable to have any effect on liver health
